In patent publication US11548888B2, “KRas G12C inhibitors” (Mirati Therapeutics, Inc., priority 2019, dated 2023) one finds IC50 data, which are given here for 38 compounds.

The target in the assay is T1, KRas G12C (Homo sapiens, UniProt P01116, G12C).
T1 construct: NCI-H358 cells (ATCC CRL-5807) express KRas G12C
T1 sequence (P01116 1-188 isoform P01116-2 G12C): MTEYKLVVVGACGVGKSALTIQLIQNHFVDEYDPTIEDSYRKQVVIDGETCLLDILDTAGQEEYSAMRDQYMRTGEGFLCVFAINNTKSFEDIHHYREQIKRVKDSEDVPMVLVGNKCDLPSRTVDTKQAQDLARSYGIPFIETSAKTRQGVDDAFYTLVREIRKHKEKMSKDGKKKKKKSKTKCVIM
The assay can be described thus: Inhibition of KRas G12C-dependent cell growth: Phospho-ERK in NCI-H358 cells. Format: cell-based. Particulars: NCI-H358 cells expressing KRas G12C; Phospho-ERK (Thr202/Tyr204) normalized to GAPDH; 3 hours compound; 4 parameter fit. The method in brief:
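Phospho-ERK read-out in KRas G12C-expressing NCI-H358 cells after 3 h compound treatment (final DMSO 0.5%), by in-cell infrared immunodetection. Signal normalized to GAPDH and to DMSO controls. 4-parameter curve fit gave IC50.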
Regarding `CN1C[C@H](F)C[C@H]1COc1nc(N2CCN(C(=O)/C=C/CF)[C@@H](CC#N)C2)c2cnc(-c3cncc4cccc(Cl)c34)c(F)c2n1` [Example 53, 2-[(2S)-4-[7-(5-chloro-4-isoquinolyl)-8-fluoro-2-[[(2S,4R)-4-fluoro-1-methyl-pyrrolidin-2-yl]methoxy]pyrido[4,3-d]pyrimidin-4-yl]-1-[(E)-4-fluorobut-2-enoyl]piperazin-2-yl]acetonitrile], the IC50 (as a rule, the concentration needed to halve the response being measured) stood at 17 nM.
In the case of `C=C(F)C(=O)N1CCN(c2nc(OC[C@@H]3CCCN3C)nc3c(F)c(-c4cncc5cccc(Cl)c45)ncc23)C[C@@H]1CC#N` [Example 54, 2-((S)-4-(7-(5-chloroisoquinolin-4-yl)-8-fluoro-2-(((S)-1-methylpyrrolidin-2-yl)methoxy)pyrido[4,3-d]pyrimidin-4-yl)-1-(2-fluoroacryloyl)piperazin-2-yl)acetonitrile], half-maximal inhibition (IC50) required 14 nM.
As to `Cc1cccc2cncc(-c3ncc4c(N5CCN(C(=O)/C=C/CF)[C@@H](CC#N)C5)nc(OC[C@@H]5CC(F)(F)CN5C)nc4c3F)c12` [Example 55, 2-((S)-4-(2-(((S)-4,4-difluoro-1-methylpyrrolidin-2-yl)methoxy)-8-fluoro-7-(5-methylisoquinolin-4-yl)pyrido[4,3-d]pyrimidin-4-yl)-1-((E)-4-fluorobut-2-enoyl)piperazin-2-yl)acetonitrile], the IC50 is 90 nM.
`C=C(F)C(=O)N1CCN(c2nc(OC[C@@H]3C[C@@H](OC)CN3C)nc3c(F)c(-c4cncc5cccc(Cl)c45)ncc23)C[C@@H]1CC#N` [Example 56, 2-[(2S)-4-[7-(5-chloro-4-isoquinolyl)-8-fluoro-2-[[(2S,4R)-4-methoxy-1-methyl-pyrrolidin-2-yl]methoxy]pyrido[4,3-d]pyrimidin-4-yl]-1-(2-fluoroprop-2-enoyl)piperazin-2-yl]acetonitrile] registered an IC50 of 28 nM.
The same measure for `COC/C=C/C(=O)N1CCN(c2nc(OC[C@@H]3C[C@@H](OC)CN3C)nc3c(F)c(-c4cccc5cccc(C)c45)ncc23)C[C@@H]1CC#N` [Example 57, 2-[(2S)-4-[8-fluoro-2-[[(2S,4R)-4-methoxy-1-methyl-pyrrolidin-2-yl]methoxy]-7-(8-methyl-1-naphthyl)pyrido[4,3-d]pyrimidin-4-yl]-1-[(E)-4-methoxybut-2-enoyl]piperazin-2-yl]acetonitrile]: 58 nM; for `C=C(F)C(=O)N1CCN(c2nc(OC[C@@H]3CCCN3C)nc3c(C#N)c(-c4cccc5cccc(C)c45)ncc23)C[C@@H]1CC#N` [Example 58, 4-[(3S)-3-(cyanomethyl)-4-(2-fluoroprop-2-enoyl)piperazin-1-yl]-7-(8-methyl-1-naphthyl)-2-[[(2S)-1-methylpyrrolidin-2-yl]methoxy]pyrido[4,3-d]pyrimidine-8-carbonitrile]: 330 nM; for `C=C(F)C(=O)N1CCN(c2nc(OCC3CCN3C(C)(C)C)nc3c(F)c(-c4cccc5cccc(Cl)c45)ncc23)C[C@@H]1CC#N` (stereo partly drawn) [Example 59, 2-[(2S)-4-[2-[(1-tert-butylazetidin-2-yl)methoxy]-7-(8-chloro-1-naphthyl)-8-fluoro-pyrido[4,3-d]pyrimidin-4-yl]-1-(2-fluoroprop-2-enoyl)piperazin-2-yl]acetonitrile]: 60 nM.
Consider `C=CC(=O)N1CCN(c2nc(OC[C@@H]3CCCN3C)nc3c(F)c(-c4ccccc4F)ncc23)C[C@@H]1CC#N` [Example 60, 2-[(2S)-4-[8-fluoro-7-(2-fluorophenyl)-2-[[(2S)-1-methylpyrrolidin-2-yl]methoxy]pyrido[4,3-d]pyrimidin-4-yl]-1-prop-2-enoyl-piperazin-2-yl]acetonitrile], for which 127 nM corresponded to half-maximal inhibition (IC50).
With `COC/C=C/C(=O)N1CCN(c2nc(OC[C@@H]3CCCN3C)nc3c(F)c(-c4cccc5cccc(C)c45)ncc23)C[C@@H]1CC#N` [Example 61, 2-[(2S)-4-[8-fluoro-7-(8-methyl-1-naphthyl)-2-[[(2S)-1-methylpyrrolidin-2-yl]methoxy]pyrido[4,3-d]pyrimidin-4-yl]-1-[(E)-4-methoxybut-2-enoyl]piperazin-2-yl]acetonitrile], the midpoint of inhibition, the IC50, lay at 70 nM.
The same measure for `COC/C=C/C(=O)N1CCN(c2nc(OC[C@@H]3C[C@@H](OC)CN3C)nc3c(F)c(-c4cccc5cccc(Cl)c45)ncc23)C[C@@H]1CC#N` [Example 62, 2-((S)-4-(7-(8-chloronaphthalen-1-yl)-8-fluoro-2-(((2S,4R)-4-methoxy-1-methylpyrrolidin-2-yl)methoxy)pyrido[4,3-d]pyrimidin-4-yl)-1-((E)-4-methoxybut-2-enoyl)piperazin-2-yl)acetonitrile]: 18 nM.
For `C=C(F)C(=O)N1CCN(c2nc(OC[C@@H]3CCCN3C)nc3c(OCC(F)(F)F)c(-c4cccc5cccc(C)c45)ncc23)C[C@@H]1CC#N` [Example 63, 2-((S)-1-(2-fluoroacryloyl)-4-(7-(8-methylnaphthalen-1-yl)-2-(((S)-1-methylpyrrolidin-2-yl)methoxy)-8-(2,2,2-trifluoroethoxy)pyrido[4,3-d]pyrimidin-4-yl)piperazin-2-yl)acetonitrile], half-maximal inhibition (IC50) required 2850 nM.
As for `C=C(F)C(=O)N1CCN(c2nc(OC3CCN(C4CCOCC4)CC3)nc3c(F)c(-c4cccc5cccc(Cl)c45)ncc23)C[C@@H]1CC#N` [Example 64], the midpoint of inhibition, the IC50, lay at 376 nM.
The compound `C=C(F)C(=O)N1CCN(c2nc(OCC3CN(C)CCO3)nc3c(F)c(-c4cccc5cccc(Cl)c45)ncc23)C[C@@H]1CC#N` (some centres unmarked) [Example 65] came in with an IC50 of 36 nM.
`CC(C)(C)N1CCC1COc1nc(N2CCN(C(=O)/C=C/CF)[C@@H](CC#N)C2)c2cnc(-c3cccc4cccc(Cl)c34)c(F)c2n1` (some centres unmarked) [Example 66] returned an IC50 of 12 nM.
`C=C(F)C(=O)N1CCN(c2nc(OCCN(C)C)nc3c(F)c(-c4cccc5cccc(Cl)c45)ncc23)C[C@@H]1CC#N` [Example 68] showed an IC50 of 86 nM.
With `C=CC(=O)N1CCN(c2nc(OC[C@@H]3CCCN3C)nc3c(F)c(-c4cccc5cccc(Cl)c45)ncc23)[C@@H](C)C1` [Example 69], it took 58 nM to reach half-maximal inhibition (IC50).
The same measure for `C=C(F)C(=O)N1CCN(c2nc(OC3CCN(C)CC3)nc3c(F)c(-c4cccc5cccc(Cl)c45)ncc23)C[C@@H]1CC#N` [Example 70]: 456 nM; for `C=C(F)C(=O)N1CCN(c2nc(OCC3CCN3C)nc3c(F)c(-c4cccc5cccc(Cl)c45)ncc23)C[C@@H]1CC#N` (some centres unmarked) [Example 71]: 13 nM.
The compound `C=C(F)C(=O)N1CCN(c2nc(O[C@H](C)CN(C)C)nc3c(F)c(-c4cccc5cccc(Cl)c45)ncc23)C[C@@H]1CC#N` [Example 73] returned an IC50 of 593 nM.
`C=CC(=O)N1CC2(CCN(c3nc(OC4CCN(C5CCOCC5)CC4)nc4c(F)c(-c5cccc6cccc(Cl)c56)ncc34)CC2)C1` [Example 74]: half-maximal inhibition (IC50) was put at 1350 nM.
The compound `C=C(F)C(=O)N1CCN(c2nc(OC[C@@H]3CCCN3C)nc3c(F)c(-c4cccc5cccc(Cl)c45)ncc23)[C@@H](C)C1` [Example 75] returned an IC50 of 1190 nM.
For `C=C(F)C(=O)N1CCN(c2nc(OC[C@@H]3CCCN3C)nc3c(F)c(-c4cccc5cccc(Cl)c45)ncc23)[C@H](C)C1` [Example 76], the IC50 was determined as 3000 nM.
For `C=C(F)C(=O)N1CCN(c2nc(OCC34CCCN3CCC4)nc3c(F)c(-c4cccc5cccc(Cl)c45)ncc23)C[C@@H]1CC#N` [Example 77], the midpoint of inhibition, the IC50, lay at 2 nM.
`COC/C=C/C(=O)N1CCN(c2nc(OC[C@@H]3CCCN3C)nc3c(F)c(-c4cccc5cccc(Cl)c45)ncc23)C[C@@H]1CC#N` [Example 78]: it took 13 nM to reach half-maximal inhibition (IC50).
In turn, `C=CC(=O)N1CCN(c2nc(OC[C@@H]3CCCN3C)nc3c(F)c(-c4c(C)ccc5[nH]ncc45)ncc23)[C@@H](C)C1` [Example 79] had an IC50 of 675 nM.
Take `C=CC(=O)N1CCN(c2nc(OC[C@@H]3CCCN3C)nc3c(F)c(-c4c(C)ccc5[nH]ncc45)ncc23)CC1` [Example 80]: the IC50 turned out to be 2520 nM.
As to `C=C(F)C(=O)N1CCN(c2nc(OC[C@@H]3CCCN3C)nc3c(F)c(-c4c(O)cccc4F)ncc23)C[C@@H]1CC#N` [Example 81], it took 1100 nM to reach half-maximal inhibition (IC50).
`C=C(F)C(=O)N1CCN(c2nc(OCCc3cccc(N)c3)nc3c(F)c(-c4cccc5cccc(Cl)c45)ncc23)C[C@@H]1CC#N` [Example 82] registered an IC50 of 618 nM.
Regarding `C=CC(=O)N1CC2(CCN(c3nc(OC[C@@H]4CCCN4C)nc4c(F)c(-c5c(C)ccc6[nH]ncc56)ncc34)CC2)C1` [Example 83], half-maximal inhibition (IC50) was put at 3500 nM.
`C=C(F)C(=O)N1CCN(c2nc(OC[C@@H]3CCCN3C)nc3c(F)c(-c4cccc5cnn(C)c45)ncc23)C[C@@H]1CC#N` [Example 84] had an IC50 of 765 nM.
In the case of `C=CC(=O)N1CC2(CCN(c3nc(OC[C@@H]4CCCN4C)nc4c(F)c(-c5cccc6cccc(Cl)c56)ncc34)CC2)C1` [Example 85], the IC50 was determined as 519 nM.
In turn, `C=C(F)C(=O)N1CCN(c2nc(OC[C@@H]3CCCN3C)nc3c(F)c(-c4cccc5ccc(F)c(C)c45)ncc23)C[C@@H]1CC#N` [Example 86] registered an IC50 of 14 nM.
`C=C(F)C(=O)N1CCN(c2nc(OC[C@@H]3CCCN3C)nc3c(F)c(-c4ccccc4F)ncc23)C[C@@H]1CC#N` [Example 87] had an IC50 of 4380 nM.
The same measure for `COC/C=C/C(=O)N1CCN(c2nc(OC[C@@H]3CCCN3C)nc3c(F)c(-c4cncc5cccc(Cl)c45)ncc23)C[C@@H]1CC#N` [Example 88]: 77 nM.
The same measure for `CN1CCC[C@H]1COc1nc(N2CCN(C(=O)/C=C/CF)[C@@H](CC#N)C2)c2cnc(-c3cncc4cccc(Cl)c34)c(F)c2n1` [Example 90]: 26 nM; for `C=C(F)C(=O)N1CCN(c2nc(N3CC(N(C)C)C3)nc3c(F)c(-c4cccc5cccc(Cl)c45)ncc23)C[C@@H]1CC#N` [Example 91]: 29 nM.
For `C=C(F)C(=O)N1CCN(c2nc(OC[C@@H]3CCCN3C)nc3c(F)c(-c4cccc5ccc(F)c(Cl)c45)ncc23)C[C@@H]1CC#N` [Example 92], the midpoint of inhibition, the IC50, lay at 11 nM.
The same measure for `C=CC(=O)N1CCN(c2nc(OC[C@@H]3CCCN3C)nc3c(F)c(-c4cncc5cccc(Cl)c45)ncc23)CC1` [Example 93]: 366 nM.
